In article PMC3596083 (Beilstein Journal of Organic Chemistry, 2013):
“And” between values parts separate entries of the source, which are not always exact repeats. Equal entries are not always repeated. “Also recorded” adds a separate entry of the source. Where two headings read alike, the source gives them in different places.

How the values were obtained:
[1] = system: GABAA-receptors; parameters: method as in PMID 12113824; conditions: cited from earlier work; for agonist character on GABAA-channels: chloride-flux assays on synaptoneurosomes
[2] = molecular target: T1, GABAA-receptors (α1-GFP + β2 + γ2Long) expressed in CHO cells (Homo sapiens, UniProt P14867+P47870); test: Whole-cell patch-clamp recordings with fast perfusion on CHO cells transiently expressing GABAA-receptors; format: cell-based; conditions: for changes in the current: application of 10 mM
T1 construct: expressed in transfected cells; host or cells: CHO-K1 (ATCC), transient transfection with Lipofectamine 2000
Protocol: (§1) The investigations in this study were performed by using a standard ^36Cl^−-flux assay in mouse brain synaptoneurosomes. […] Moreover, ^36Cl^−-flux assays were carried out by using a 15 s incubation time. […] The activity of synthesized compounds was tested by using CHO cells transiently expressing GABAA-receptors in the configuration (α1-GFP + β2 + γ2Long). To analyze the functional properties of the compounds, we performed monitoring of ionic currents using whole-cell patch-clamp techniques. […] Then we applied different concentrations of the studied compounds and estimated the minimal concentration that induced currents and, if possible, their EC50.
Cell culture and transient transfection
Chinese Hamster Ovary (CHO-K1) cells were obtained from the American Type Culture Collection (ATCC, Molsheim, France) and maintained as previously described. One day before the transfection, cells were plated on the coverslips (12–14 mm in diameter), which were placed inside 35 mm cell culture dishes with 2 mL of medium. CHO cells were transfected with a total 3 µg cDNA of α1-GFP + β2 + γ2Long (ratio 1:1:1) using the Lipofectamine 2000 transfection protocol (Life Technology, USA). Three hours after the initial exposure of the cells to the cDNAs, a fresh […] solution replaced the old one.
Electrophysiological recordings were performed from fluorescent cells 48–72 hours after […]
Electrophysiological recordings
Whole-cell recordings were conducted on CHO-K1 cells at room temperature (20–25 °C) using an EPC-9 amplifier (HEKA Elektronik, Germany). Cells were continuously superfused with external solution containing (mM): NaCl 140, CaCl2 2, KCl 2.8, MgCl2 1, HEPES 20, glucose 10; pH 7.3; 320–330 mOsm. The patch pipette solution contained (mM): CsCl 140, MgCl2 2, MgATP 2, NaGTP 0.4, HEPES/CsOH 10, BAPTA/KOH 20; pH 7.3; 290 mOsm.
Pipettes were pulled from borosilicate glass capillaries (Harvard Apparatus Ltd, USA) and had resistances of 5–8 MΩ.
For rapid replacement of solutions, a system of two parallel rectangular tubes, 100 µm in diameter, located at a distance of 40–50 µm from the tested cell, was used. The movement of tubes was controlled by a computer-driven fast exchange system (SF 77A Perfusion Fast-Step, Warner, USA). As measured by open tip electrode controls (1/10 NaCl), in this system a 20–80% solution exchange time was within 2–3 ms. Cells with a low input resistance (<150 MΩ) were excluded from analysis.
For quantitative estimations of agonist action, dose-response relationships were fitted by the […]
I = Imax / (1 + (EC50/ [C])n) where I is the current amplitude induced by the agonist at concentration [C], Imax is the maximum response of the cell, n is the Hill coefficient and EC50 is the concentration for which a half-maximum response is induced. Concentration-response relationships were constructed using at least four points. […]

[3] = system: GABAA-receptors; test: Standard 36Cl−-flux assay in mouse brain synaptoneurosomes (Carlier et al.); format: cell-based; conditions: ratio of the EC50 values of ref 13
Protocol: as §1

[4] = whole-cell currents, mean ± error over x tested cells, read-out: EC50, mean

T1 sequence (P14867 28-456): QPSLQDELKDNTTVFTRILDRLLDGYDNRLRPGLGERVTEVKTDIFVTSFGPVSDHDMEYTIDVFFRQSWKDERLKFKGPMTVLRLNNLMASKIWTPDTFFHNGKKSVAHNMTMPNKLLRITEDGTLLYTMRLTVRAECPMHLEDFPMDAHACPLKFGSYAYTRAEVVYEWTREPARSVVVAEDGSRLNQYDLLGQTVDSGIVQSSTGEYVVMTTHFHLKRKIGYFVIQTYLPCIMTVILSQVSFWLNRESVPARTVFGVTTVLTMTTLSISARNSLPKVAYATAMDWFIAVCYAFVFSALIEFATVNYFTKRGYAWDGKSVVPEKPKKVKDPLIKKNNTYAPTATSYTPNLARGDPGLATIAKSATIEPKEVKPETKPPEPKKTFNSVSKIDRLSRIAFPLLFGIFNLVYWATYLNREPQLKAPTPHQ
T1 sequence (P47870 25-512 limits assumed): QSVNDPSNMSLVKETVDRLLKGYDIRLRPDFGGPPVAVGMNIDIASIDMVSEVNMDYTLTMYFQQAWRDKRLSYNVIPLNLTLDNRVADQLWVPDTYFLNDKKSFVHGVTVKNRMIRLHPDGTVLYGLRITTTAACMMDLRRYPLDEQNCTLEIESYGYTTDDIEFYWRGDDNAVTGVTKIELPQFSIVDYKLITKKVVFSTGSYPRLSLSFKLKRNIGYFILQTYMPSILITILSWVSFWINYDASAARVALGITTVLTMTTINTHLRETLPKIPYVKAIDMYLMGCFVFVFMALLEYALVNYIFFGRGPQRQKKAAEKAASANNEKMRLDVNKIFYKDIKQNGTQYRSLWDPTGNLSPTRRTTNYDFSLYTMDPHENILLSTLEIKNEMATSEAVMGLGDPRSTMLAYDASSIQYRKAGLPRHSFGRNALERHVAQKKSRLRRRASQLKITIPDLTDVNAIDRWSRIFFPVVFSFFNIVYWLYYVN
T1 sequence (P18507 40-475 partner): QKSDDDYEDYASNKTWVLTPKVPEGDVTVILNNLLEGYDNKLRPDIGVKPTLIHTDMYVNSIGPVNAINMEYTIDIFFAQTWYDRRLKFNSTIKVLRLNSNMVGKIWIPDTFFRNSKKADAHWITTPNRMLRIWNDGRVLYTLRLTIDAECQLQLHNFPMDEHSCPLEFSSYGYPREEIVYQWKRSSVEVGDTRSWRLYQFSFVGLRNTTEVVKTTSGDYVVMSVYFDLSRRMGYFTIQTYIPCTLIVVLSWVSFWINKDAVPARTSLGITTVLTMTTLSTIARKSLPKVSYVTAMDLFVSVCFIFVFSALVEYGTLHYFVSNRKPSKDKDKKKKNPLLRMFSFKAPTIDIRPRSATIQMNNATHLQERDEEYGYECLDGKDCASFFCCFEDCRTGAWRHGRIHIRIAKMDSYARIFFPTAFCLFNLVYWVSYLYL

| SMILES | agonist character on GABAA-channels [1] | melting point [°C] | EC50 [2, 4] [mM] | other results |
| --- | --- | --- | --- | --- |
| NCCCC(=O)NCCCCNC(=O)CCCN [4a] | partial, full or superagonists | – | – | changes in the current ([2]; x = 4): 0 pA |
| Cl.Cl.NCCCNC(=O)CCCN [7b] | – | 140 to 142 | 1.08 ± 0.14 | currents induced compared with GABA ([2]; at concentrations of 10 mM): comparable to those for GABA 30–100 µM |
| Cl.Cl.NCCCCCCCCNC(=O)CCCN [7e] | – | 136 to 138 | – | current amplitude ([2]; at 5 mM, x = 3): 10–20 pA |
| NCCCCNC(=O)CCCN [7c] | partial, full or superagonists | – | 1.75 ± 0.33 | – |
| Cl.Cl.NCCCC(=O)NCCN [7a] | partial, full or superagonists | 144 to 146 | – | current amplitude ([2]; at 2.6 mM, x = 4): 10–30 pA |
| Cl.Cl.NCCCC(=O)NCc1ccc(CN)cc1 | – | 251 to 253 | – | – |
| NCCCC(=O)NCCCCCCCCNC(=O)CCCN [4c] | partial, full or superagonists | – | – | induction of whole-cell currents ([2]; concentration of 15 mM): not able to induce currents |
| NCCCC(=O)NCCCCCCNC(=O)CCCN [4b] | superagonist; also recorded: partial, full or superagonists | – | – | EC50 ([1]; 36Cl−-flux, mouse brain synaptoneurosomes, 15 s incubation, read-out: EC50 (Cl− uptake)): 0.733 mM; maximum Cl− uptake higher than that achieved by GABA ([1]; 36Cl−-flux, mouse brain synaptoneurosomes): about 50%; changes in the current ([2]; x = 4): 0 pA; EC50 fold higher than for GABA [3]: more than 30 fold |
| Cl.Cl.NCCCCCCNC(=O)CCCN [7d] | – | 147 to 150 | 5.25 ± 0.56 | activation threshold [2]: about 100 µM; EC50 ([2]; example concentration-response curve (Figures 2B, 5C), read-out: EC50 from the concentration dependence shown in the figure): ~5 mM and 5.1 mM |
